# From patent publication US20030198617A1, “Pharmaceutical tryptophan containing dipeptide compositions and methods of use thereof” (priority 1993, published 2003)
# Read-outs that look alike come from different tables or passages of the source.
# Legend:
# [1] = Toothpaste containing the dipeptide: dental caries, gingival disease; assay type: in vivo, human
# [2] = Pregnant women (Examples 34, 87); assay type: in vivo, human
# Procedure: Ile-Trp is administered to pregnant women. The route of administration is IM or intranasally 100 μg daily for 5-10 days.
# The route of administration is IM or intranasally 100 μg daily for 5-10 days. […] It was also noted that there was a decrease in fetal hypoxia.
# [3] = system: Shigella
# Description: A total 125 patients infected with Shigella dysentery are examined.
# A total 125 patients with 53 patients for control infected with Shigella dysentery were examined.
# [4] = system: flu; assay type: in vivo, human; details: 3 days, with anti-flu vaccination
# [5] = Patients with various allergies; assay type: in vivo, human
# [6] = Symptom complexes: joint pain, muscle aches, fevers, chills (Examples 17, 66); assay type: in vivo, human
# [7] = Acne vulgaris patients; assay type: in vivo, human
# Description: A number of patients within the group patients afflicted with furunculitis, pyoderma, cellulitis, and folliculitis are afflicted with acne vulgaris and acne. […] The clinical outcome correlates with the correction of immunological indices, and relapses are controlled.
# A number of patients within the group of 159 patients afflicted with furunculitis, pyoderma, cellulitis, and folliculitis were afflicted with acne vulgaris and acne. […] The clinical outcome correlated with the correction of immunological indices, and relapses were controlled.
# [8] = Bone-marrow compromise (transplant or radiation exposure); assay type: in vivo, human
# [9] = Patients subjected to skin grafting; assay type: in vivo, human
# Procedure: Ile-Trp is administered to patients subjected to skin grafting. Ile-Trp is administered IM or intranasally single daily at 50-100 μg for 5 days.
# The control group comprised 27 patients. […] In control group the manifestations of rejection were determined in 8 patients.
# [10] = system: herpetic lesions; assay: Recurrent herpetic lesions; assay type: in vivo, human; details: for recurrence of herpetic lesions: IM or intranasally
# [11] = Cutaneous burns; assay type: in vivo, human
# Procedure: Patients with cutaneous burns are treated with Ile-Trp either IM or intranasally.
# [12] = Pyoderma patients (furunculitis, cellulitis, folliculitis); assay type: in vivo, human; details: IM or intranasally 5 days
# Procedure: Patients with pyoderma, including furunculitis, cellulitis, and folliculitis, are treated with Ile-Trp with a control group which is not treated with Ile-Trp. Medications are administered either IM or intranasally for 5 consecutive days. […] Clinical improvement correlate with immunological indices correction. Administration IM, intranasally, or topically as a sterile saline, solution of medication for a period of 5 to 10 days at a concentration of 1 μg/kg body weight.
# Medications were administered either IM or intranasally for 5 consecutive days. […] Clinical improvement correlated with immunological indices correction. Administration IM, intranasally, or topically as a sterile saline solution of medication for a period of 5 to 10 days at a concentration of 1 μg/kg body weight.
# [13] = Psoriasis patients; assay type: in vivo, human; details: 10 days
# Procedure: Patients with psoriasis are treated with Ile-Trp and some patients are used as controls.
# All patients had at a least 5 year history of […] treatment.
# [14] = Sinus disease patients (Examples 14, 63); assay type: in vivo, human; details: 3-10 days
# Description: The decrease of treatment duration up to 1.7 times compared to controls.
# [15] = Deformity and scarring after injuries; assay type: in vivo, human
# [16] = Female patients with pelvic inflammatory diseases, cervicitis, vaginitis, abscesses; assay type: in vivo, human
# Procedure: Female patients with the various disorders (pelvic inflammatory diseases, cervicitis, vaginitis and various tubo-ovarian and adnexal abscesses) are treated and some patients are used as controls. Ile-Trp is applied IM, intranasally at 100 μg 5 consecutive days or 50 μg intralymphatically for 5 consecutive days in conjunction with conventional therapy. […] The normalization of immune status correlates with clinical improvements.
# The normalization of immune status correlated with clinical improvements.
# [17] = system: leprosy; assay: Leprosy (Hansen's disease); assay type: in vivo, human
# [18] = Chronic osteomyelitis; assay type: in vivo, human
# Procedure: Ile-Trp is prescribed to patients with chronic osteomyelitis of various etiology and localization. Ile-Trp is administered IM or intranasally single daily at 100 μg for 10 days.
# The control group comprised 88 patients.
# [19] = Chemotherapy complications and side effects; assay type: in vivo, human
# [20] = system: Herpes Zoster; assay: Herpes Zoster patients, with interferon; assay type: in vivo, human; details: for clinical effect: 100 μg, 10 days
# Procedure: Patients with Herpes Zoster are treated with Ile-Trp in combination with conventional interferon treatment and some control patients with interferon alone. […] There is noted prevention of relapses, and some healing occurred earlier than control groups. Immunological indices correlates with clinical outcome.
# There was noted prevention of relapses, and healing occurred on the average 40% earlier than control groups. Immunological indices correlated with clinical outcome.
# [21] = Antibiotic-treated patients with unfavorable allergological history; assay type: in vivo, human
# Procedure: Ile-Trp is applied in patients treated with antibiotics for various indications who have unfavorable allergological history. Ile-Trp is administered IM or intranasally single daily at 100 μg for 5-10 days.
# Control group comprised 43 patients.
# [22] = Bone fractures; assay type: in vivo, human
# Procedure: Ile-Trp is applied to patients with bone fractures of various origin, type and localization. Ile-Trp is administered intramuscularly or intranasally single daily at […] for 10 days.
# The control group comprised 28 patients.
# [23] = IM862 100 μg IM or intranasally
substance,measurement,setting,value
Glu-Trp [IM862],clinical effect,[1]; toothpaste containing IM862,reduction of gingival disease and reduction in dental caries
same,clinical effect,"[2]; IM862 100 μg daily 5-10 days, 34 women","resolution of weakness, dizziness, and increased appetite"
same,clinical effect,"[3]; IM862 IM 100 μg 10 days, 125 patients",normalization of fever
same,sickness rate for 12 months,"[4]; IM862 50 μg, 268 persons",significant decrease of sickness rate
same,clinical effect,"[5]; IM862 1 μg/kg 5-7 days, 29 patients",disappearance of allergic reactions
same,clinical effect,"[6]; IM862 100 μg 5-10 days, 156 patients",accelerated reduction in symptom complexes
same,immunological indices,[7]; IM862 group,corrected and normalized rapidly
same,clinical effect,[8]; IM862 IM or intranasally,improved immune parameters
same,infectious complications and graft rejection,"[9]; IM862 50-100 μg 5 days, all 17 patients",prevented the arising of infections complications and graft rejection
same,outbreaks per year after treatment,"[10]; IM862 in combination with interferon, 7-10 outbreaks per year before",less than one outbreak per year
same,recurrence of herpetic lesions,[10]; IM862 topically,marked reduction of recurrence of herpetic lesions
same,clinical effect,"[11]; IM862 IM or intranasally, 23 patients","Accelerated wound healing, diminished frequency of infections, and less eschar"
same,clinical effect,"[12]; IM862, 159 patients",Immunological indices were normalized with disappearance of skin manifestations
same,"significant improvement, share of patients",[13]; [23],60%
same,"total recovery, share of patients",[13]; [23],33%
same,"improvement, share of patients","[13]; IM862 100 μg IM or intranasally, 30 patients",7%
same,decrease of treatment duration compared to controls,[14]; IM862 1 μg/kg,up to 1.7 times
same,clinical effect,"[14]; IM862 1 μg/kg, 51 patients",normalization of nasal breathing
same,clinical effect,[15]; IM862 IM or intranasally,less deformity and scarring
same,clinical effect,"[16]; IM862 with conventional therapy, 46 patients",arresting of pain syndrome
same,clinical effect,"[17]; IM862 100 μg 5 days with conventional therapy, 45 patients",resolution of the lesions
same,clinical effect,"[18]; IM862 100 μg 10 days, 176 patients",pronounced positive influence on clinical course
same,clinical effect,[19]; IM862 during chemotherapy,fewer complications and side effects related to chemotherapy
same,clinical effect,"[20]; IM862 with interferon, 37 patients",accelerated regression of foci of herpetic infection
same,healing earlier than control groups,"[20]; IM862 with interferon, on the average",40%
same,allergic reactions to antibiotics,"[21]; IM862 100 μg 5-10 days, 76 patients, majority of cases",prevented the arising of allergic reactions
same,consolidation of fractures,"[22]; IM862, 10 days, 44 patients",accelerated essentially
Ile-Trp,clinical effect,[1]; toothpaste containing Ile-Trp,reduction of gingival disease and reduction in dental caries
same,clinical effect,[2]; Ile-Trp 100 μg daily 5-10 days,"resolution of weakness, dizziness, and increased appetite"
same,clinical effect,[3]; Ile-Trp IM 100 μg 10 days,normalization of fever
same,sickness rate for 12 months,[4]; Ile-Trp 50 μg,significant decrease of sickness rate
same,clinical effect,[5]; Ile-Trp 1 μg/kg 5-7 days,disappearance of allergic reactions
same,clinical effect,[6]; Ile-Trp 100 μg 5-10 days,accelerated reduction in symptom complexes
same,immunological indices,[7]; Ile-Trp group,corrected and normalized rapidly
same,clinical effect,[8]; Ile-Trp IM or intranasally,improved immune parameters
same,infectious complications and graft rejection,[9]; Ile-Trp 50-100 μg 5 days,prevents the arising of infections complications and graft rejection
same,recurrence of herpetic lesions,[10]; Ile-Trp topically,marked reduction of recurrence of herpetic lesions
same,clinical effect,[11]; Ile-Trp IM or intranasally,"Accelerated wound healing, diminished frequency of infections, and less eschar"
same,clinical effect,[12]; Ile-Trp,Immunological indices are normalized with disappearance of skin manifestations
same,clinical effect,[13]; Ile-Trp 100 μg IM or intranasally,"improvement in most of the patients, and total recovery in some of the patients"
same,clinical effect,[14]; Ile-Trp 1 μg/kg,normalization of nasal breathing
same,clinical effect,[15]; Ile-Trp IM or intranasally,less deformity and scarring
same,clinical effect,[16]; Ile-Trp with conventional therapy,arresting of pain syndrome
same,clinical effect,[17]; Ile-Trp 100 μg 5 days with conventional therapy,resolution of the lesions
same,clinical effect,[18]; Ile-Trp 100 μg 10 days,pronounced positive influence on clinical course
same,clinical effect,[19]; Ile-Trp during chemotherapy,fewer complications and side effects related to chemotherapy
same,clinical effect,[20]; Ile-Trp with interferon,accelerated regression of foci of herpetic infection
same,allergic reactions to antibiotics,[21]; Ile-Trp 100 μg 5-10 days,prevents the arising of allergic reactions
same,consolidation of fractures,"[22]; Ile-Trp, 10 days",accelerates essentially
